In this experiment the test system is IgE antibodies from patients. As to the kind of experiment: Wheat epitope mapping (2): overlapping 10-amino-acid peptide fragments shifted by one amino acid.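 Note: key of grades: preferably = shorter partial sequence still acting as epitope; more preferably = sequence improving IgE binding; key = particularly important sequence.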 It counts as binding, human. In outline:
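Cellulose-bound 10-mer peptides offset by one residue were probed with patient serum IgE and detected by chemiluminescence. Secondary-antibody-only signals were subtracted per peptide. Residual binding was expressed as % of the parent overlapping peptide, scored as none (<30%), poor (30–<50%), somewhat poor (50–<70%) or retained (≥70%).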

Setting [1] is: serum of patient P55 (child, general immediate type allergy to wheat).
Setting [2] is: serum of patient G2 (adult, general immediate type allergy to wheat).
[3] abbreviates: serum of patient G4 (adult, general immediate type allergy to wheat).
[4] abbreviates: serum of patient G7 (adult, general immediate type allergy to wheat).
Where [5] appears, read: serum of patient G9 (adult, general immediate type allergy to wheat).

With “1771 (KVGYNP; REGION 1..6: note = epitope) [compound 1771]”, the “epitope sequence binding to IgE antibody, rank (Key/Preferably/More preferably)” value (serum of patient P50 (child, general immediate type allergy to wheat)) is “Key”.

For the substance “1773 (EVSSYLKK; REGION 1..8: note = epitope) [compound 1773]”, the “epitope sequence binding to IgE antibody, rank (Key/Preferably/More preferably)” value under setting [1] is “Key”.

Turning to “1774 (YLKKVGYNP; REGION 1..9: note = epitope) [compound 1774]”, the “epitope sequence binding to IgE antibody, rank (Key/Preferably/More preferably)” value under setting [1] was “Preferably”.

In the case of “1775 (LKKVGYN; REGION 1..7: note = epitope) [compound 1775]”, the “epitope sequence binding to IgE antibody, rank (Key/Preferably/More preferably)” value under setting [1] was “Key”.

On to “1777 (KEVSSYLKK; REGION 1..9: note = epitope) [compound 1777]”, for which the “epitope sequence binding to IgE antibody, rank (Key/Preferably/More preferably)” value under setting [2] is on record as “Key”.

On to “1778 (KVGY; REGION 1..4: note = epitope) [compound 1778]”, for which the “epitope sequence binding to IgE antibody, rank (Key/Preferably/More preferably)” value under setting [2] is “Key”.

On to “1780 (YLKKVG; REGION 1..6: note = epitope) [compound 1780]”, for which the “epitope sequence binding to IgE antibody, rank (Key/Preferably/More preferably)” value (serum of patient G3 (adult, general immediate type allergy to wheat)) is listed as “Key”.

Turning to “1781 (KEVSSYLKKV; REGION 1..10: note = epitope) [compound 1781]”, the “epitope sequence binding to IgE antibody, rank (Key/Preferably/More preferably)” value under setting [3] is given as “Key”.

In the case of “1782 (VSSYLKKVGY; REGION 1..10: note = epitope) [compound 1782]”, under setting [3], the “epitope sequence binding to IgE antibody, rank (Key/Preferably/More preferably)” value is listed as “Key”.

“1783 (KVGYNP; REGION 1..6: note = epitope) [compound 1783]”: under setting [3], the “epitope sequence binding to IgE antibody, rank (Key/Preferably/More preferably)” value is on record as “Key”.

With “1784 (LKKVGYNP; REGION 1..8: note = epitope) [compound 1784]”, under “serum of patient G5 (adult, general immediate type allergy to wheat)”, the “epitope sequence binding to IgE antibody, rank (Key/Preferably/More preferably)” value is listed as “Key”.

Turning to “1785 (LKKVGYNP; REGION 1..8: note = epitope) [compound 1785]”, under setting [4], the “epitope sequence binding to IgE antibody, rank (Key/Preferably/More preferably)” value was “Key”.

For “1786 (KEVSSYLKK; REGION 1..9: note = epitope) [compound 1786]”, the “epitope sequence binding to IgE antibody, rank (Key/Preferably/More preferably)” value under setting [5] is listed as “Preferably”.

Regarding “1787 (KEVSSYLK; REGION 1..8: note = epitope) [compound 1787]”, the “epitope sequence binding to IgE antibody, rank (Key/Preferably/More preferably)” value under setting [5] is given as “Key”.

“1788 (LKKVGYNP; REGION 1..8: note = epitope) [compound 1788]”: the “epitope sequence binding to IgE antibody, rank (Key/Preferably/More preferably)” value under setting [5] is on record as “Key”.

Consider “1790 (SGKELE; REGION 1..6: note = epitope) [compound 1790]”, for which the “epitope sequence binding to IgE antibody, rank (Key/Preferably/More preferably)” value (serum of patient P3 (WDEIA)) is given as “Key”.

With “1791 (PKFL; REGION 1..4: note = epitope) [compound 1791]”, the “epitope sequence binding to IgE antibody, rank (Key/Preferably/More preferably)” value (serum of patient P3 (WDEIA)) was “Key”.

As for “1792 (SGKELE; REGION 1..6: note = epitope) [compound 1792]”, for the setting “serum of patient P8 (WDEIA)”, the “epitope sequence binding to IgE antibody, rank (Key/Preferably/More preferably)” value is listed as “Key”.

Turning to “1793 (SGKELEALPK; REGION 1..10: note = epitope) [compound 1793]”, the “epitope sequence binding to IgE antibody, rank (Key/Preferably/More preferably)” value (serum of patient P9 (WDEIA)) is given as “Key”.

For “1796 (SGKELEALPK; REGION 1..10: note = epitope) [compound 1796]”, the “epitope sequence binding to IgE antibody, rank (Key/Preferably/More preferably)” value (serum of patient P15 (WDEIA)) is recorded as “Preferably”.

In the case of “1798 (EALPKFLKN; REGION 1..9: note = epitope) [compound 1798]”, the “epitope sequence binding to IgE antibody, rank (Key/Preferably/More preferably)” value (serum of patient P15 (WDEIA)) was “Preferably”.

On to “1799 (KFLK; REGION 1..4: note = epitope) [compound 1799]”, for which, where the note is “serum of patient P15 (WDEIA)”, the “epitope sequence binding to IgE antibody, rank (Key/Preferably/More preferably)” value is on record as “Key”.

Regarding “1800 (KELEALPK; REGION 1..8: note = epitope) [compound 1800]”, the “epitope sequence binding to IgE antibody, rank (Key/Preferably/More preferably)” value (serum of patient P17 (WDEIA)) is recorded as “Key”.

For the substance “1801 (LEALPKFLKN; REGION 1..10: note = epitope) [compound 1801]”, the “epitope sequence binding to IgE antibody, rank (Key/Preferably/More preferably)” value (serum of patient P17 (WDEIA)) is listed as “Key”.

Consider “1802 (SGKELEALPK; REGION 1..10: note = epitope) [compound 1802]”, for which the “epitope sequence binding to IgE antibody, rank (Key/Preferably/More preferably)” value (serum of patient P18 (WDEIA)) is reported as “Preferably”.

Consider “1803 (SGKELE; REGION 1..6: note = epitope) [compound 1803]”, for which the “epitope sequence binding to IgE antibody, rank (Key/Preferably/More preferably)” value (serum of patient P18 (WDEIA)) is listed as “Key”.

“1804 (KFLKN; REGION 1..5: note = epitope) [compound 1804]”: where the note is “serum of patient P18 (WDEIA)”, the “epitope sequence binding to IgE antibody, rank (Key/Preferably/More preferably)” value is on record as “Key”.

Take “1806 (ELEALPK; REGION 1..7: note = epitope) [compound 1806]”: the “epitope sequence binding to IgE antibody, rank (Key/Preferably/More preferably)” value (serum of patient P22 (WDEIA)) was “Key”.

In the case of “1807 (PKFLKNG; REGION 1..7: note = epitope) [compound 1807]”, the “epitope sequence binding to IgE antibody, rank (Key/Preferably/More preferably)” value (serum of patient P22 (WDEIA)) is listed as “Key”.

“1809 (ELEALPKFL; REGION 1..9: note = epitope) [compound 1809]”: under “serum of patient P26 (WDEIA)”, the “epitope sequence binding to IgE antibody, rank (Key/Preferably/More preferably)” value is “Preferably”.

For “1811 (ALPKFLKNG; REGION 1..9: note = epitope) [compound 1811]”, where the note is “serum of patient P26 (WDEIA)”, the “epitope sequence binding to IgE antibody, rank (Key/Preferably/More preferably)” value is recorded as “Preferably”.

Regarding “1814 (KELEAL; REGION 1..6: note = epitope) [compound 1814]”, for the setting “serum of patient P27 (WDEIA)”, the “epitope sequence binding to IgE antibody, rank (Key/Preferably/More preferably)” value was “Key”.

For the substance “1815 (PKFLK; REGION 1..5: note = epitope) [compound 1815]”, where the note is “serum of patient P29 (WDEIA)”, the “epitope sequence binding to IgE antibody, rank (Key/Preferably/More preferably)” value is listed as “Key”.

On to “1816 (LEALPKFL; REGION 1..8: note = epitope) [compound 1816]”, for which the “epitope sequence binding to IgE antibody, rank (Key/Preferably/More preferably)” value (serum of patient P30 (WDEIA)) is “Key”.

For “1817 (SGKELE; REGION 1..6: note = epitope) [compound 1817]”, under “serum of patient P32 (WDEIA)”, the “epitope sequence binding to IgE antibody, rank (Key/Preferably/More preferably)” value is on record as “Key”.

On to “1818 (PKFL; REGION 1..4: note = epitope) [compound 1818]”, for which the “epitope sequence binding to IgE antibody, rank (Key/Preferably/More preferably)” value (serum of patient P32 (WDEIA)) is listed as “Key”.

Regarding “1819 (SGKELEALPK; REGION 1..10: note = epitope) [compound 1819]”, the “epitope sequence binding to IgE antibody, rank (Key/Preferably/More preferably)” value (serum of patient P33 (WDEIA)) is on record as “Key”.

For the substance “1820 (PKFLK; REGION 1..5: note = epitope) [compound 1820]”, for the setting “serum of patient P33 (WDEIA)”, the “epitope sequence binding to IgE antibody, rank (Key/Preferably/More preferably)” value is on record as “Key”.

On to “1821 (SGKELEALPK; REGION 1..10: note = epitope) [compound 1821]”, for which the “epitope sequence binding to IgE antibody, rank (Key/Preferably/More preferably)” value (serum of patient P34 (WDEIA)) is given as “Key”.

For “1822 (SGKELEALPK; REGION 1..10: note = epitope) [compound 1822]”, the “epitope sequence binding to IgE antibody, rank (Key/Preferably/More preferably)” value (serum of patient P35 (WDEIA)) is “Key”.

As to “1823 (LPKFL; REGION 1..5: note = epitope) [compound 1823]”, for the setting “serum of patient P35 (WDEIA)”, the “epitope sequence binding to IgE antibody, rank (Key/Preferably/More preferably)” value was “Key”.

As to “1824 (LPKFLK; REGION 1..6: note = epitope) [compound 1824]”, the “epitope sequence binding to IgE antibody, rank (Key/Preferably/More preferably)” value (serum of patient P36 (WDEIA)) is given as “Key”.

Consider “1825 (LPKF; REGION 1..4: note = epitope) [compound 1825]”, for which the “epitope sequence binding to IgE antibody, rank (Key/Preferably/More preferably)” value (serum of patient P52 (child, general immediate type allergy to wheat)) is reported as “Key”.

With “1826 (PKFL; REGION 1..4: note = epitope) [compound 1826]”, the “epitope sequence binding to IgE antibody, rank (Key/Preferably/More preferably)” value (serum of patient G1 (adult, general immediate type allergy to wheat)) is on record as “Key”.

In the case of “1828 (LEALPKFLK; REGION 1..9: note = epitope) [compound 1828]”, the “epitope sequence binding to IgE antibody, rank (Key/Preferably/More preferably)” value under setting [3] is “Key”.

For the substance “1830 (LPKFL; REGION 1..5: note = epitope) [compound 1830]”, under “serum of patient G6 (adult, general immediate type allergy to wheat)”, the “epitope sequence binding to IgE antibody, rank (Key/Preferably/More preferably)” value was “Key”.

Take “1832 (KELE; REGION 1..4: note = epitope) [compound 1832]”: the “epitope sequence binding to IgE antibody, rank (Key/Preferably/More preferably)” value under setting [4] is on record as “Key”.

As to “1833 (KFLKN; REGION 1..5: note = epitope) [compound 1833]”, under setting [4], the “epitope sequence binding to IgE antibody, rank (Key/Preferably/More preferably)” value is “Key”.

Regarding “1837 (VRTLQRT; REGION 1..7: note = epitope) [compound 1837]”, the “epitope sequence binding to IgE antibody, rank (Key/Preferably/More preferably)” value (serum of patient P3 (WDEIA)) was “Preferably”.

As for “1838 (RTLQ; REGION 1..4: note = epitope) [compound 1838]”, for the setting “serum of patient P3 (WDEIA)”, the “epitope sequence binding to IgE antibody, rank (Key/Preferably/More preferably)” value is listed as “Key”.

In the case of “1839 (TVRTLQR; REGION 1..7: note = epitope) [compound 1839]”, the “epitope sequence binding to IgE antibody, rank (Key/Preferably/More preferably)” value (serum of patient P5 (WDEIA)) is given as “Preferably”.

Take “1840 (RTLQ; REGION 1..4: note = epitope) [compound 1840]”: the “epitope sequence binding to IgE antibody, rank (Key/Preferably/More preferably)” value (serum of patient P5 (WDEIA)) is recorded as “Key”.

Turning to “1841 (YTVRTLQ; REGION 1..7: note = epitope) [compound 1841]”, the “epitope sequence binding to IgE antibody, rank (Key/Preferably/More preferably)” value (serum of patient P8 (WDEIA)) was “Preferably”.

As to “1842 (TVRTLQ; REGION 1..6: note = epitope) [compound 1842]”, the “epitope sequence binding to IgE antibody, rank (Key/Preferably/More preferably)” value (serum of patient P8 (WDEIA)) is listed as “Key”.

With “1843 (TVRTLQR; REGION 1..7: note = epitope) [compound 1843]”, where the note is “serum of patient P9 (WDEIA)”, the “epitope sequence binding to IgE antibody, rank (Key/Preferably/More preferably)” value is recorded as “Preferably”.

As for “1844 (TVRTLQ; REGION 1..6: note = epitope) [compound 1844]”, the “epitope sequence binding to IgE antibody, rank (Key/Preferably/More preferably)” value (serum of patient P9 (WDEIA)) was “Key”.

Turning to “1845 (YTVRTLQR; REGION 1..8: note = epitope) [compound 1845]”, the “epitope sequence binding to IgE antibody, rank (Key/Preferably/More preferably)” value (serum of patient P12 (WDEIA)) is “Preferably”.
